Reference: US9156906B2, “Glycopeptides and methods of making and using them” (THE REGENTS OF THE UNIVERSITY OF CALIFORNIA, priority 2008, dated 2015)
Where a SMILES comes first, the peptide text is derived from it. Where no end group is shown, it is not given here. The star is where a group is joined. X1 = CC(=O)N[C@@H]1[C@@H](O[C@@H]2O[C@H](CO)[C@H](O)[C@H](O)[C@H]2O)[C@@H](O)[C@@H](CO)O[C@@H]1*; GalNAc = N-acetylgalactosamine (GalNAc, 2-acetamido-2-deoxy-D-galactopyranose); αGalNAc = CC(=O)N[C@@H]1[C@@H](O)[C@@H](O)[C@@H](CO)O[C@@H]1*

Columns and labels:
[1] = tested on: naïve CD8+ T cells of healthy A2 donors; experiment: In vitro priming of naive cytotoxic T cells from PBMC of normal A2+ donors, 51Cr release on T2 cells; type: cell-based, human; conditions: for number of specific CTL lines out of the 12, Donor 1 / number of specific CTL lines out of the 12, Donor 2 / number of specific CTL lines out of the 12, Donor 3 / number of specific CTL lines out of the 12, Donor 4 / number of specific CTL lines out of the 12, Donor 5 / number of specific CTL lines out of the 12, Donor 6 / number of specific CTL lines out of the 12, Donor 7: net specific lysis ≧20%, day 10, T2 targets 3:1 E/T; for Total number of specific CTL lines: sum over 7 donors;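 as to all read-outs here: CTL lines primed by co-culturing PBMC with autologous antigen-pulsed mature dendritic cells, 12 lines per antigen, lysis net of unpulsed T2 cell background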
Procedure: Seven A2+ healthy individuals, never exposed to HBV or HIV, between ages 40 and 57, were included in the study. Autologous, antigen-pulsed, mature dendritic cells (DC) were used as antigen presenting cells (APCs) for the in vitro priming. Autologous DC were cultured with granulocyte/macrophage colony stimulating factor (GM-CSF) (kindly provided by Kirin, Japan) and interleukin (IL) 4 (Peprotech, Rocky Hill, N.J.).
DC were previously pulsed for 2 hours with glycopeptides(s) or peptide(s). Each well defined an individual CTL line.
By using the culture conditions and IL2 regimen optimized over several years in our laboratory, the large majority of the PBMC in culture are T cells at day 10. CD8+ T cells represent the majority.
T cell cultures were tested for specificity at day 10 in a ^51Cr release assay. T2 cells (A2) were used as targets at 3:1 E/T ratio. T cell lines primed in vitro with glycopeptides were tested for the ability to recognize T2 cells pulsed with the glycopeptides, or the peptide backbones, or to untreated T2 cells (background control). Peptide-primed T cell lines were also tested for their ability to respond to peptides and cross-react with the corresponding GalNAc-O-S modified sequence.
CTL lines showing a net specific lysis ≧20% were considered specific. Carbohydrate recognition was defined as a specific response to the glycopeptides, after subtracting the background and the specific response to the corresponding peptide backbone.

[2] = tested on: β-Gal-[1->3]-α-GalNAc-O-specific T cell clones; experiment: 51Cr release cytotoxicity assay with TF-specific CTL clones on antigen-pulsed EL-4 targets (fine specificity, cross-reactivity); type: cell-based, mouse; conditions: clones B1, C3, D4, 5:1 E/T
Procedure: CTL clones were generated in C57BL/6 mice (H-2^b) immunized with a K^b-restricted designer alanine-rich glycopeptide sequence that contained TF, sequence: • AIIA(β-Gal-[1->3]-α-GalNAc-O-serine)FAAL
TF-specific CTL clones were tested for the capacity to cross-react to a glycopeptide with a completely unrelated sequence but carrying the sugar at the same position (5 within a 9mer). For this analysis, we designed a modified Sendai virus immunodominant epitope NP 324-332 (5N->5S-TF), sequence: • FAPG (β-Gal-[1->3]-α-GalNAc-O-S)YPAL This epitope is an ideal proof concept because when bonded to K^b class I MHC molecules it exposes position 5 as a major TcR contact.
To define the role of the glycosylated amino acid linker for sugar recognition by T cells, the same T cell clones were also tested for cross-reactivity to three alanine-rich glycopeptides with identical sequences as the immunogen: AIIA(β-Gal-[1->3]-α-GalNAc-O-serine)FAAL, but where TF was linked to different amino acid residues.
T cells were studied with a classic ^51Cr release cytotoxicity assay at a 5:1 effector/target (E/T) ratio. The EL-4 thymoma cell line (H-2)^b, class II MHC negative, was used as the target in these experiments. The cytolytic response to EL-4 cells in the absence of glycopeptides (background) was also assayed, and subtracted, to quantify the net specific lysis. […]

[3] = tested on: C57BL/6 mice; experiment: Immunization of wild type C57BL/6 mice, generation of cytotoxic T cells; type: in vivo, mouse; conditions: wild type C57BL/6 mice (H-2^b)
Procedure: These studies were performed in vivo by injecting Tn-containing glycopeptides in: 1) wild type mice (C57BL/6, H-2^b); and 2) MUC1/MT double transgenic mice (H-2^b) that develop spontaneous tumors expressing the Tn carbohydrate molecule within 12 weeks of age.

[4] = tested on: A2 class I MHC molecules; experiment: A2 binding affinity of glycopeptides; design: species or system human
[5] = clear solution with no visible particulates
Text: Solubility is defined as a clear solution with no visible particulates.

[6] = tested on: cancer patients; conditions: variety of different formulations; cited from earlier work
[7] = tested on: MUC1/MT transgenic mice; experiment: Glycopeptide vaccination of tumor bearing MUC1/MT transgenic mice, CTL activity by 51Cr release on EL-4; conditions: MUC1/MT mice 14, 18, 24 weeks old; glycopeptide in IFA; EL-4 targets
Procedure: In these experiments, MUC1/MT mice have been chosen according to age and tumor development.
Seven days after priming, mice were sacrificed. Splenocytes from each experimental group were pooled and stimulated in vitro in the presence of the glycopeptide that was used as immunogen and irradiated B cell blasts as antigen presenting cells (APCs). After 5 days in culture, cells were collected, purified over Ficoll gradient, and T cell blasts were cultured in complete RPMI conditioned with supernatant from ConA-activated splenocytes as an IL2 source. Two days later (day 7 in culture) T cells were tested for CTL activity.
Carbohydrate and peptide specificity were studied in a standard ^51Cr release assay using the lymphoma EL-4 (H-2^b) cell line as target at different effector: target ratios (E/T) in duplicate, with and without antigens. […] Net specific lysis has been calculated by subtracting the cytolytic response to EL-4 cells alone without antigens defined as background. Data were calculated as % cytotoxicity=[(sample-spontaneous release)/(maximum release-spontaneous release)]×100.
Specificity of primary CTL cultures tested in a ^51Cr release assay is shown. […] EL-4 cells plated with T cell blasts in the absence of antigens have been assessed in duplicate at every E/T ratio to determine the extent of non-specific lysis. […]

Compound: CC(=O)N[C@H]1[C@@H](OC[C@H](NC(=O)[C@@H]2CCCN2C(=O)[C@H](CC(C)C)NC(=O)[C@@H](N)Cc2ccccc2)C(=O)N[C@@H](CC(=O)O)C(=O)N[C@@H](Cc2ccccc2)C(=O)N[C@@H](Cc2ccccc2)C(=O)N2CCC[C@H]2C(=O)N[C@@H](CO)C(=O)N[C@H](C(=O)O)C(C)C)O[C@H](CO)[C@H](O)[C@@H]1O
- number of specific CTL lines out of the 12, Donor 1 [1]: 5
- number of specific CTL lines out of the 12, Donor 2 [1]: 5
- number of specific CTL lines out of the 12, Donor 3 [1]: 1
- number of specific CTL lines out of the 12, Donor 4 [1]: 3
- number of specific CTL lines out of the 12, Donor 5 [1]: 4
- number of specific CTL lines out of the 12, Donor 6 [1]: 2
- number of specific CTL lines out of the 12, Donor 7 [1]: 4
- Total number of specific CTL lines [1]: 24

Compound: CC[C@H](C)[C@H](NC(=O)[C@H](C)N)C(=O)N[C@H](C(=O)N[C@@H](C)C(=O)N[C@@H](CO[C@H]1O[C@H](CO)[C@H](O)[C@H](O[C@@H]2O[C@H](CO)[C@H](O)[C@H](O)[C@H]2O)[C@H]1NC(C)=O)C(=O)N[C@@H](Cc1ccccc1)C(=O)N[C@@H](C)C(=O)N[C@@H](C)C(=O)N[C@@H](CC(C)C)C(=O)O)[C@@H](C)CC [AIIA(β-Gal-[1->3]-α-GalNAc-O-serine)FAAL] (H-AIIAS(X1)FAAL-OH; N-terminus and C-terminus assumed)
- cytolytic response of TF-specific CTL clones to antigen (51Cr release, net lysis) [2]: high affinity/avidity
- cytotoxic T cell response generated by immunization [3]: generate primary and memory TF-specific cytotoxic T cells in C57BL/6 mice in the absence of Th

Compound: CC(=O)N[C@H]1[C@@H](OC[C@H](NC(=O)[C@H](C)NC(=O)[C@H](CC(C)C)NC(=O)[C@H](C)N)C(=O)N[C@@H](C)C(=O)N[C@@H](C)C(=O)N[C@@H](C)C(=O)N[C@@H](C)C(=O)N[C@H](C(=O)O)C(C)C)O[C@H](CO)[C@H](O)[C@@H]1O [ALA(GALNAc-O-S)SAAAAV]
- A2 affinity (in words) [4]: affinity slightly higher than the corresponding peptide but still efficiently

Compound: CC(=O)N[C@H]1[C@@H](OC[C@H](NC(=O)CNC(=O)[C@H](CC(C)C)NC(=O)[C@H](C)N)C(=O)N[C@H](C(=O)N[C@@H](C)C(=O)N2CCC[C@H]2C(=O)N2CCC[C@H]2C(=O)N[C@H](C(=O)O)C(C)C)[C@@H](C)O)O[C@H](CO)[C@H](O)[C@@H]1O [ALG(Tn-S)TAPPV]
- A2 affinity (in words) [4]: very high affinity

Compound: CC(=O)N[C@H]1[C@@H](O[C@H](C)[C@H](NC(=O)[C@H](CC(=O)O)NC(=O)[C@@H]2CCCN2C(=O)[C@H](Cc2ccccc2)NC(=O)[C@H](CC(C)C)NC(=O)[C@@H](N)Cc2ccccc2)C(=O)N[C@@H](CCCNC(=N)N)C(=O)N[C@@H](C)C(=O)N[C@H](C(=O)O)C(C)C)O[C@H](CO)[C@H](O)[C@@H]1O [FLFPD(GalNAc-T)RAV] (H-FLFPDT(αGalNAc)RAV-OH; N-terminus and C-terminus assumed)
- solubility when diluted in Dimethylsulfoxide (DMSO) [5]: very soluble
- A2 affinity (in words) [4]: very high affinity

Compound: CC(=O)N[C@H]1[C@@H](O[C@H](C)[C@H](NC(=O)[C@H](CC(=O)O)NC(=O)[C@@H]2CCCN2C(=O)[C@H](Cc2ccccc2)NC(=O)[C@H](CC(C)C)NC(=O)[C@@H](N)Cc2ccccc2)C(=O)N[C@@H](CCCNC(=N)N)C(=O)N[C@@H](Cc2ccc(O)cc2)C(=O)N[C@H](C(=O)O)C(C)C)O[C@H](CO)[C@H](O)[C@@H]1O [FLFPD(Tn-T)RYV] (H-FLFPDT(αGalNAc)RYV-OH; N-terminus and C-terminus assumed)
- solubility when diluted in Dimethylsulfoxide (DMSO) [5]: very soluble
- A2 affinity (in words) [4]: very high affinity

Compound: CC(=O)N[C@H]1[C@@H](O[C@H](C)[C@H](NC(=O)[C@H](CC(=O)O)NC(=O)[C@@H]2CCCN2C(=O)[C@H](CC(C)C)NC(=O)[C@@H](N)Cc2ccccc2)C(=O)N[C@@H](CCCNC(=N)N)C(=O)N[C@@H](Cc2ccccc2)C(=O)N[C@@H](Cc2ccc(O)cc2)C(=O)N[C@H](C(=O)O)C(C)C)O[C@H](CO)[C@H](O)[C@@H]1O [FLPD(GalNAc-T)RFYV] (H-FLPDT(αGalNAc)RFYV-OH; N-terminus and C-terminus assumed)
- solubility when diluted in Dimethylsulfoxide (DMSO) [5]: very soluble
- A2 affinity (in words) [4]: very high affinity

Compound: CC(=O)N[C@H]1[C@@H](OC[C@H](NC(=O)[C@H](CO)NC(=O)[C@H](Cc2ccc(O)cc2)NC(=O)[C@H](CC(C)C)NC(=O)CN)C(=O)N[C@H](C(=O)N[C@H](C(=O)N2CCC[C@H]2C(=O)N[C@H](C(=O)O)C(C)C)C(C)C)[C@@H](C)O)O[C@H](CO)[C@H](O)[C@@H]1O [GLYS(GalNAc-O-S)TVPV]
- number of specific CTL lines out of the 12, Donor 1 [1]: 6
- number of specific CTL lines out of the 12, Donor 2 [1]: 2
- number of specific CTL lines out of the 12, Donor 3 [1]: 1
- number of specific CTL lines out of the 12, Donor 4 [1]: 1
- number of specific CTL lines out of the 12, Donor 5 [1]: 4
- number of specific CTL lines out of the 12, Donor 6 [1]: 4
- number of specific CTL lines out of the 12, Donor 7 [1]: 2
- Total number of specific CTL lines [1]: 20

Compound: CC(=O)N[C@H]1[C@@H](OC[C@H](NC(=O)[C@@H](NC(=O)[C@H](CC(C)C)NC(=O)[C@@H](N)[C@@H](C)O)[C@@H](C)O)C(=O)N[C@@H](CS)C(=O)N[C@@H](CC(N)=O)C(=O)N[C@H](C(=O)N[C@@H](CO)C(=O)N[C@H](C(=O)O)C(C)C)[C@@H](C)O)O[C@H](CO)[C@H](O)[C@@H]1O [TLT(GalNAc-O-S)CNTSV] (H-TLTS(αGalNAc)CNTSV-OH; N-terminus and C-terminus assumed)
- number of specific CTL lines out of the 12, Donor 1 [1]: 7
- number of specific CTL lines out of the 12, Donor 2 [1]: 4
- number of specific CTL lines out of the 12, Donor 3 [1]: 0
- number of specific CTL lines out of the 12, Donor 4 [1]: 1
- number of specific CTL lines out of the 12, Donor 5 [1]: 5
- number of specific CTL lines out of the 12, Donor 6 [1]: 1
- number of specific CTL lines out of the 12, Donor 7 [1]: 5
- Total number of specific CTL lines [1]: 23

Compound: CC(=O)N[C@@H]1[C@@H](O)[C@@H](O)[C@@H](CO)O[C@@H]1O [Tn, α-GalNAc]
- safety and tolerability in clinical trials [6]: safe and well tolerated

Compound: AIIA(GalNAc-O-S)FAAL (AIIAS(GalNAc)FAAL)
- CTL activity after vaccination [7]: Strong CTL activity

Compound: FAPG (β-Gal-[1->3]-α-GalNAc-O-S)YPAL
- cytolytic response of TF-specific CTL clones to antigen (51Cr release, net lysis) [2]: good cytolytic activity
